Consider 22 compounds from patent US7319109B2, “Farnesoid X receptor agonists” (Smith Kline Beecham Corporation, priority 2002, dated 2008).

For this assay, the target named is T1, Human FXRα Ligand Binding Domain (FXRα LBD) (Homo sapiens, UniProt Q96RI1).
T1 construct: polyhistidine (N); made in house; host or cells: E. coli BL21 (DE3), pRSET-A vector
T1 sequence (Q96RI1 222-472 isoform Q96RI1-2): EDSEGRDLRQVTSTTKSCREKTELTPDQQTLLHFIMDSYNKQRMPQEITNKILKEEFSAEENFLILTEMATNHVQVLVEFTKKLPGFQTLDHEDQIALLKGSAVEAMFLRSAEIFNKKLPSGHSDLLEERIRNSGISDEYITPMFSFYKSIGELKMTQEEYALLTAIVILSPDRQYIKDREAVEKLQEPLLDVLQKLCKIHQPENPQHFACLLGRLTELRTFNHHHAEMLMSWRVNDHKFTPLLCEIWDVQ
The experiment in a line: FXR Affinity Binding Assay: ligand mediated cofactor peptide (SRC-1 LCD2, 676-700) interaction, time resolved fluorescence. As to conditions: FXRα LBD-APC / europium labeled SRC-1 peptide, TRF signal, at least 2 hours at room temperature; read-out: Activity (pEC50) (converted). As for the experimental part: Determination of a ligand mediated cofactor peptide interaction to quantify ligand binding to the nuclear receptor Farnasoid X Receptor (FXR). The method measures the ability of putative ligands to modulate the interaction between the purified bacterial expressed FXRα (LBD) and a synthetic biotinylated peptide based on residues 676-700 of SRC-1(LCD2, 676-700). […] Detection of the associated complex is measured by time resolved fluorescence (TRF). The purified LBD of FXR is labeled with biotin then mixed with stoichiometric amounts of APC labeled streptavidin (Molecular Probes). The biotinylated peptide is then mixed with a ½ stoichiometric amount of europium labeled streptavidin (Wallac Inc). Each is then blocked with a 5 fold excess of biotin and allowed to equilibrate for 15 min. Equimolar amounts of receptor and peptide are mixed together and allowed to equilibrate for at least 30 min prior to the addition to either a variable or constant concentrations of the sample for which the affinity is to be determined. After equilibration, the time-resolved fluorescent signal is quantitated using a fluorescent plate reader. The affinity of the test compound is estimated from a plot of fluorescence versus concentration of test compound added.
Ligands that promote the complex formation induce a concentration-dependent increase in time-resolved fluorescent signal.
Human FXRα Ligand Binding Domain (FXRα LBD) was expressed in E.coli strain BL21 (DE3) as an amino-terminal polyhistidine tagged fusion protein. Expression was under the control of an IPTG inducible T7 promoter. DNA encoding this recombinant protein was subcloned into the pRSET-A expression vector (Invitrogen). The coding sequence of Human FXRα LBD was derived from Genbank accession number U 68233 (amino acids 222 to 472).
Routinely, 30-40 g cell paste (equivalent to 2-3 liters of the fermentation batch) was resuspended in 200-250 mL TBS, pH 7.2 (25mM Tris, 150 mM NaCl). Cells were lysed by passing 3 times through a French Press and cell debris was removed by centrifugation (30 minutes, 20,000 g, 4° C.). The cleared supernatant was filtered through course pre-filters, and TBS, pH 7.2, containing 500 mM imidazole was added to obtain a final imidazole concentration of 50 mM. This lysate was loaded onto a column (6×8 cm) packed with Sepharose [Ni^++ charged]Chelation resin (Pharmacia) and pre-equilibrated with TBS pH 7.21 50 mM imidazole. After washing to baseline absorbance with equilibration buffer, the column was washed with one column volume of TBS pH 7.2 containing 90 mM imidazole. FXRαLBD was eluted directly with 365 mM imidazole. Column fractions were pooled and dialyzed against TBS, pH 7.2, containing 0.5 mM EDTA and 5 mM DTT. The dialyzed protein sample was concentrated using Centri-prep 10 K (Amicon) and subjected to size exclusion, using a column (3×90 cm) packed with Sepharose S-75 resin (Pharmacia) pre-equilibrated with TBS, pH 7.2, containing 0.5 mM EDTA and 5 mM DTT.
Purified FXRα LBD was desalted/buffer exchanged using PD-10 gel filtration columns into PBS [100 mM NaPhosphate, pH 7.2, 150 mM NaCl]. FXRα LBD was diluted to approximately 10 μM in PBS and five-fold molar excess of NHS-LC-Biotin (Pierce) was added in a minimal volume of PBS. This solution was incubated with gentle mixing for 30 minutes at room temperature. The biotinylation modification reaction was stopped by the addition of 2000× molar excess of Tris-HCl, pH 8. The modified FXRα LBD was dialyzed against 4 buffer changes, each of at least 50 volumes, PBS containing 5 mM DTT, 2 mM EDTA and 2% sucrose.
With `CC(C)c1onc(-c2c(Cl)cccc2Cl)c1COc1ccc(NS(=O)(=O)c2cccc(C(=O)O)c2)c(Cl)c1` [Example 46, 3-{[(2-Chloro-4-{[3-(2,6-dichlorophenyl)-5-isopropylisoxazol-4-yl]methoxy}phenyl)amino]sulfonyl}benzoic acid], the EC50 is 0.102 to 1 µM.

In the case of `CC(C)c1onc(-c2c(Cl)cccc2Cl)c1COc1ccc(N(C)S(=O)(=O)c2cccc(C(=O)O)c2)c(Cl)c1` [Example 47, 3-{[(2-Chloro-4-{[3-(2,6-dichlorophenyl)-5-isopropylisoxazol-4-yl]methoxy}phenyl)-(methyl)amino]sulfonyl}benzoic acid], the EC50 is less than 0.1 µM. The same measure for `Cc1cc(OCc2c(-c3c(Cl)cccc3Cl)noc2C(C)C)ccc1N(C)S(=O)(=O)c1cccc(C(=O)O)c1` [Example 48, 3-{[(4-{[3-(2,6-Dichlorophenyl)-5-isopropylisoxazol-4-yl]methoxy}-2-methylphenyl)-(methyl)amino]sulfonyl}benzoic acid]: less than 0.1 µM; for `CC(C)c1onc(-c2c(Cl)cccc2Cl)c1COc1ccc(N(C)S(=O)(=O)c2cccc(C(=O)O)c2)cc1` [Example 49, 3-{[(4-{[3-(2,6-Dichlorophenyl)-5-isopropylisoxazol-4-yl]methoxy}phenyl)(methyl)-amino]sulfonyl}benzoic acid]: 0.102 to 1 µM; for `CCN(c1ccc(OCc2c(-c3c(Cl)cccc3Cl)noc2C(C)C)cc1Cl)S(=O)(=O)c1cccc(C(=O)O)c1` [Example 50]: less than 0.1 µM. As for `CCN(c1ccc(OCc2c(-c3c(Cl)cccc3Cl)noc2C(C)C)cc1)S(=O)(=O)c1cccc(C(=O)O)c1` [Example 52, 3-{[(4-{[3-(2,6-Dichlorophenyl)-5-isopropylisoxazol-4-yl]methoxy}phenyl)(ethyl)-amino]sulfonyl}benzoic acid], the figure is 0.102 to 1 µM; as for `COC(=O)c1ccc(S(=O)(=O)Nc2ccc(OCc3c(-c4c(Cl)cccc4Cl)noc3C(C)C)cc2Cl)cc1` [Example 53, Methyl 4-{[(2-chloro-4-{[3-(2,6-dichlorophenyl)-5-isopropylisoxazol-4-yl]methoxy}-phenyl)amino]sulfonyl}benzoate], 0.102 to 1 µM; as for `COC(=O)c1ccc(S(=O)(=O)Nc2ccc(OCc3c(-c4c(Cl)cccc4Cl)noc3C(C)C)cc2C)cc1` [Example 54, Methyl 4-{[(4-{[3-(2,6-dichlorophenyl)-5-isopropylisoxazol-4-yl]methoxy}-2-methyl-phenyl)amino]sulfonyl}benzoate], less than 0.1 µM. As for `COC(=O)c1ccc(S(=O)(=O)Nc2ccc(OCc3c(-c4c(Cl)cccc4Cl)noc3C(C)C)cc2)cc1` [Example 55, Methyl 4-{[(4-{[3-(2,6-dichlorophenyl)-5-isopropylisoxazol-4-yl]methoxy}phenyl)-amino]sulfonyl}benzoate], the figure is 1.02 to 10 µM; as for `CC(C)c1onc(-c2c(Cl)cccc2Cl)c1COc1ccc(NS(=O)(=O)c2ccc(C(=O)O)cc2)c(Cl)c1` [Example 56, 4-{[(2-Chloro-4-{[3-(2,6-dichlorophenyl)-5-isopropylisoxazol-4-yl]methoxy}phenyl)-amino]sulfonyl}benzoic acid], 1.02 to 10 µM. With `Cc1cc(OCc2c(-c3c(Cl)cccc3Cl)noc2C(C)C)ccc1NS(=O)(=O)c1ccc(C(=O)O)cc1` [Example 57, 4-{[(4-{[3-(2,6-Dichlorophenyl)-5-isopropylisoxazol-4-yl]methoxy}-2-methylphenyl)-amino]sulfonyl}benzoic acid], the EC50 is 0.102 to 1 µM. The same measure for `CC(C)c1onc(-c2c(Cl)cccc2Cl)c1COc1ccc(NS(=O)(=O)c2ccc(C(=O)O)cc2)cc1` [Example 58, 4-{[(4-{[3-(2,6-Dichlorophenyl)-5-isopropylisoxazol-4-yl]methoxy}phenyl)amino]-sulfonyl}benzoic acid]: 0.102 to 1 µM.

As for `COC(=O)c1ccc(S(=O)(=O)N(C)c2ccc(OCc3c(-c4c(Cl)cccc4Cl)noc3C(C)C)cc2C)cc1` [Example 59, Methyl 4-{[(4-{[3-(2,6-dichlorophenyl)-5-isopropylisoxazol-4-yl]methoxy}-2-methyl-phenyl)(methyl)amino]sulfonyl}benzoate], the EC50 was 0.102 to 1 µM.

As to `COC(=O)c1ccc(S(=O)(=O)N(C)c2ccc(OCc3c(-c4c(Cl)cccc4Cl)noc3C(C)C)cc2)cc1` [Example 60, Methyl 4-{[(4-{[3-(2,6-dichlorophenyl)-5-isopropylisoxazol-4-yl]methoxy}phenyl)-(methyl)amino]sulfonyl}benzoate], the EC50 was 1.02 to 10 µM.

Consider `CCN(c1ccc(OCc2c(-c3c(Cl)cccc3Cl)noc2C(C)C)cc1)S(=O)(=O)c1ccc(C(=O)OC)cc1` [Example 61, Methyl 4-{[(4-{[3-(2,6-dichlorophenyl)-5-isopropylisoxazol-4-yl]methoxy}phenyl)-(ethyl)amino]sulfonyl}benzoate], for which the EC50 was 1.02 to 10 µM. Turning to `CC(C)c1onc(-c2c(Cl)cccc2Cl)c1COc1ccc(N(C)S(=O)(=O)c2ccc(C(=O)O)cc2)c(Cl)c1` [Example 62, 4-{[(2-Chloro-4-{[3-(2,6-dichlorophenyl)-5-isopropylisoxazol-4-yl]methoxy}phenyl)-(methyl)amino]sulfonyl}benzoic acid], the EC50 is less than 0.1 µM. As for `Cc1cc(OCc2c(-c3c(Cl)cccc3Cl)noc2C(C)C)ccc1N(C)S(=O)(=O)c1ccc(C(=O)O)cc1` [Example 63, 4-{[(4-{[3-(2,6-Dichlorophenyl)-5-isopropylisoxazol-4-yl]methoxy}-2-methylphenyl)-(methyl)amino]sulfonyl}benzoic acid], the figure is 0.102 to 1 µM; as for `CC(C)c1onc(-c2c(Cl)cccc2Cl)c1COc1ccc(N(C)S(=O)(=O)c2ccc(C(=O)O)cc2)cc1` [Example 64, 4-{[(4-{[3-(2,6-Dichlorophenyl)-5-isopropylisoxazol-4-yl]methoxy}phenyl)(methyl)-amino]sulfonyl}benzoic acid], 0.102 to 1 µM. Take `CCN(c1ccc(OCc2c(-c3c(Cl)cccc3Cl)noc2C(C)C)cc1Cl)S(=O)(=O)c1ccc(C(=O)O)cc1` [Example 65, 4-{[(2-Chloro-4-{[3-(2,6-dichlorophenyl)-5-isopropylisoxazol-4-yl]methoxy}phenyl)-(ethyl)amino]sulfonyl}benzoic acid]: the EC50 was less than 0.1 µM.

Regarding `CCN(c1ccc(OCc2c(-c3c(Cl)cccc3Cl)noc2C(C)C)cc1C)S(=O)(=O)c1ccc(C(=O)O)cc1` [Example 66, 4-{[(4-{[3-(2,6-Dichlorophenyl)-5-isopropylisoxazol-4-yl]methoxy}-2-methylphenyl)-(ethyl)amino]sulfonyl}benzoic acid], the EC50 was 0.102 to 1 µM. On to `CCN(c1ccc(OCc2c(-c3c(Cl)cccc3Cl)noc2C(C)C)cc1)S(=O)(=O)c1ccc(C(=O)O)cc1` [Example 67, 4-{[(4-{[3-(2,6-Dichlorophenyl)-5-isopropylisoxazol-4-yl]methoxy}phenyl)(ethyl)amino]-sulfonyl}benzoic acid], for which the EC50 was 0.102 to 1 µM. As for `CC(C)c1onc(-c2ccccc2OC(F)(F)F)c1COc1ccc(NS(=O)(=O)c2cccc(C(=O)O)c2)c(Cl)c1` [Example 68, 3-({[2-Chloro-4-({5-isopropyl-3-[2-(trifluoromethoxy)phenyl]isoxazol-4-yl}methoxy)-phenyl]amino}sulfonyl)benzoic acid], the figure is 1.02 to 10 µM.
